Experimental data taken from patent US20040229881A1, “Methods of use of antimicrobial compounds against pathogenic mycoplasma bacteria” (SmithKline Beecham Corporation, priority 1999, published 2004).
Values after ≈ are worked out from the molar mass of the structure shown. Like-named read-outs stand apart in the source and are kept apart here.

What was measured:
Format in all cases: cell-based
[1] = system: Mycoplasma pneumoniae (MPN); assay: MIC by micro-broth dilution, Mycoplasma pneumoniae
Experimental: (§1) Organisms used in the analyses included Mycoplasma pneumoniae (MPN), M. hominis (Mh), M. fermentans (Mf), M. genitalium (Mg), M. penetrans (Mp) and Ureaplasma urealyticum (Uu). Minimum Inhibitory Concentrations (MICs) were determined using a micro-broth dilution method. Assays for Ureaplasma urealyticum were performed in 10B media and all other mycoplasma assays were carried out in SP4 medium.

M. fermentans (Mf) = assay: MIC by micro-broth dilution, M. fermentans; conditions: 19 isolates, SP4 medium
Experimental: as §1

[2] = system: Ureaplasma urealyticum (Uu); assay: MIC by micro-broth dilution, Ureaplasma urealyticum
Experimental: as §1

M. genitalium (Mg) = assay: MIC by micro-broth dilution, M. genitalium; conditions: Mycoplasmoides genitalium, 2 isolates, one line per isolate, SP4 medium, read-out: MICs for Mg
Experimental: as §1

M. penetrans (Mp) = assay: MIC by micro-broth dilution, M. penetrans; conditions: 1 isolate, SP4 medium; for MIC: read-out: MICs for Mp
Experimental: as §1

M. hominis (Mh) = assay: MIC by micro-broth dilution, M. hominis; conditions: 49 isolates, SP4 medium
Experimental: as §1

[3] = MPN, 103 isolates, SP4 medium, read-out: MIC 90
[4] = Mycoplasmopsis fermentans, read-out: MIC 90
[5] = Uu, 99 isolates, 10B media, read-out: MIC 90
[6] = Metamycoplasma hominis, read-out: MIC 90

Compound	MIC90 [1, 3] [µg/mL]	MIC90 (M. fermentans (Mf); [4]) [µg/mL]	MIC90 [2, 5] [µg/mL]	MIC (M. genitalium (Mg)) [µg/mL]	MIC (M. penetrans (Mp)) [µg/mL]	MIC90 (M. hominis (Mh); [6]) [µg/mL]	MIC90 (M. hominis (Mh))	MIC90 (M. fermentans (Mf)) [µg/mL]	MICs for Mp (M. penetrans (Mp))	MIC90 [1] [µg/mL]	MIC90 [2] [µg/mL]
CC[C@H]1OC(=O)[C@H](C)[C@@H](O[C@H]2C[C@@](C)(OC)[C@@H](O)[C@H](C)O2)[C@H](C)[C@@H](O[C@@H]2O[C@H](C)C[C@H](N(C)C)[C@H]2O)[C@](C)(OC)C[C@@H](C)C(=O)[C@H](C)[C@@H](O)[C@]1(C)O [Clar, clarithromycin]	≤ 0.008	64 (≈ 85.6 µM)	0.063 (≈ 0.0842 µM)	≤ 0.008	≤ 0.008						
CN(C)[C@@H]1C(O)=C(C(N)=O)C(=O)[C@@]2(O)C(O)=C3C(=O)c4c(O)cccc4[C@@](C)(O)[C@H]3C[C@@H]12 [Tet, tetracycline]		0.063 (≈ 0.142 µM)		0.063 (≈ 0.142 µM)	0.125 (≈ 0.281 µM)	32 (≈ 72 µM)				0.25 (≈ 0.563 µM)	1 (≈ 2.25 µM)
CCC[C@@H]1C[C@@H](C(=O)N[C@@H]([C@H]2O[C@H](SC)[C@H](O)[C@@H](O)[C@H]2O)[C@H](C)Cl)N(C)C1 [Clin, clindamycin]							≦0.008 ug/ml	0.031 (≈ 0.0729 µM)	≦0.008 ug/ml		
CC[C@H]1OC(=O)[C@H](C)[C@@H](O[C@H]2C[C@@](C)(OC)[C@@H](O)[C@H](C)O2)[C@H](C)[C@@H](O[C@@H]2O[C@H](C)C[C@H](N(C)C)[C@H]2O)[C@](C)(O)C[C@@H](C)CN(C)[C@H](C)[C@@H](O)[C@]1(C)O [Azith, azithromycin]	≤ 0.008	2 (≈ 2.67 µM)	4 (≈ 5.34 µM)	≤ 0.008	≤ 0.008						
N[C@@H]1[C@H]2CN(c3nc4c(cc3F)c(=O)c(C(=O)O)cn4-c3ccc(F)cc3F)C[C@@H]12 [Trov, trovafloxacin]							0.031 µg/mL (≈ 0.0745 µM)	0.016 (≈ 0.0384 µM)	≦0.008 ug/ml		

Continued, in another order:

MIC90 [1, 3] [µg/mL]	MIC90 (M. fermentans (Mf); [4]) [µg/mL]	MIC90 [2, 5] [µg/mL]	MIC (M. genitalium (Mg)) [µg/mL]	MIC (M. penetrans (Mp)) [µg/mL]	MIC90 (M. hominis (Mh); [6]) [µg/mL]	MIC90 (M. hominis (Mh))	MIC90 (M. fermentans (Mf)) [µg/mL]	MICs for Mp (M. penetrans (Mp))	Compound	MIC90 [1] [µg/mL]	MIC90 [2] [µg/mL]
0.5 (≈ 1.38 µM)	0.031 (≈ 0.0858 µM)	1 (≈ 2.77 µM)	0.5 (≈ 1.38 µM)	0.031 (≈ 0.0858 µM)	0.25 (≈ 0.692 µM)				C[C@H]1COc2c(N3CCN(C)CC3)c(F)cc3c(=O)c(C(=O)O)cn1c23 [Lev, levofloxacin]		
0.125 (≈ 0.348 µM)	0.016 (≈ 0.0445 µM)	1 (≈ 2.78 µM)	0.125 (≈ 0.348 µM)	0.016 (≈ 0.0445 µM)	0.031 (≈ 0.0863 µM)				Cc1c(F)c(N2CCNC(C)C2)cc2c1c(=O)c(C(=O)O)cn2C1CC1 (stereo not shown) [Grep, grepafloxacin]		
0.125 (≈ 0.321 µM)	≤ 0.008	0.25 (≈ 0.642 µM)	0.063 (≈ 0.162 µM)	≤ 0.008	≤ 0.008				CO/N=C1\CN(c2nc3c(cc2F)c(=O)c(C(=O)O)cn3C2CC2)CC1CN (racemic) [Gem, (R,S)-7-(3-aminomethyl-4-methoxyiminopyrrolidin-1-yl)-1-cyclopropyl-6-fluoro-4-oxo-1,4-dihydro-1,8-naphthyridine-3-carboxylic acid]		
